Common to all, as to experiment: biochemical
Assay [1] deals with T1, panel of 374 wild-type kinases (Homo sapiens, UniProt Q96PF2).
T1 construct: purchased Reaction Biology Corporation
T1 sequence (Q96PF2 1-358): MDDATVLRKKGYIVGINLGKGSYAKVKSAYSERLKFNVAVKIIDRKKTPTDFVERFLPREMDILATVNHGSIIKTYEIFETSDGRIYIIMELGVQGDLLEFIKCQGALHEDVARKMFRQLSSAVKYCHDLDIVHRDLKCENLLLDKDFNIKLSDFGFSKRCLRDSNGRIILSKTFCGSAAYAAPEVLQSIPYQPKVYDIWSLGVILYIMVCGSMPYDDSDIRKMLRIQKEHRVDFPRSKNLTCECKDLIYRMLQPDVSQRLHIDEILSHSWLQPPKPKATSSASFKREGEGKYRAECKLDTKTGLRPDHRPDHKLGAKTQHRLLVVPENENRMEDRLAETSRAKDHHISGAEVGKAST
As to conditions: read-out: % Enzyme Activity (relative to DMSO controls), kinase TSSK2.

The target in assay [2] is T2, panel of 374 wild-type kinases (Homo sapiens, UniProt Q00535).
T2 construct: purchased Reaction Biology Corporation

Assay [3] has as its target T3, panel of 374 wild-type kinases (Homo sapiens, UniProt P06213).
T3 construct: purchased Reaction Biology Corporation
As to conditions: read-out: % Enzyme Activity (relative to DMSO controls), IR.

Assay [4] has as its target T4, panel of 374 wild-type kinases (Homo sapiens, UniProt Q9NRM7).
T4 construct: purchased Reaction Biology Corporation
T4 sequence (Q9NRM7 1-1088): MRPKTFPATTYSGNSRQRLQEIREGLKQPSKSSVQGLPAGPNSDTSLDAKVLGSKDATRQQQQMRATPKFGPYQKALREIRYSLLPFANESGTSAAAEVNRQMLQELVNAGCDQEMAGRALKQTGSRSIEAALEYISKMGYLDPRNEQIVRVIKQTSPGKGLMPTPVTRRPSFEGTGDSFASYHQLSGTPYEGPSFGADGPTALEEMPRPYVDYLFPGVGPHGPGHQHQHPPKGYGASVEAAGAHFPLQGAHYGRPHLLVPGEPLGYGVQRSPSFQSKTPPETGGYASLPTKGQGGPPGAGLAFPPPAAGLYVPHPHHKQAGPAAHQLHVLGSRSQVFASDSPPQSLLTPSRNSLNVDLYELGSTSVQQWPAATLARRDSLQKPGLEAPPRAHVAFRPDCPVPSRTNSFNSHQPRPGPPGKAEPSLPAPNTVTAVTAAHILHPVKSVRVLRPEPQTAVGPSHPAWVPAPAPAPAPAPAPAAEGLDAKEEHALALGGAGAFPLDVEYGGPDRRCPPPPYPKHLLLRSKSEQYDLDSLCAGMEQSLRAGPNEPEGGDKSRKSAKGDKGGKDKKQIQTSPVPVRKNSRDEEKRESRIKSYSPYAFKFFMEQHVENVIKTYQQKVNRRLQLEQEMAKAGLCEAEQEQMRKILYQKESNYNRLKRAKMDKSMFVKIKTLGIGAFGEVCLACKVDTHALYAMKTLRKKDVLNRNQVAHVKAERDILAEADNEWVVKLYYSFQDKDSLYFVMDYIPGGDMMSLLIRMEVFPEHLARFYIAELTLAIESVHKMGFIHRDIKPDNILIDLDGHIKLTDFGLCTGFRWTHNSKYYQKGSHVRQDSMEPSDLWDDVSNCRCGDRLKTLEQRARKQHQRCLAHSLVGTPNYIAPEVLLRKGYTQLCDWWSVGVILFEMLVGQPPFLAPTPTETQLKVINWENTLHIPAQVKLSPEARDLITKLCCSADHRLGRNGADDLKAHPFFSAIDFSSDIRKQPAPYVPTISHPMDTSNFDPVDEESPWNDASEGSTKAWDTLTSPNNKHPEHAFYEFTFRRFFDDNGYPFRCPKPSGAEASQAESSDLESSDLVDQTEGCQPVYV
As to conditions: read-out: % Enzyme Activity (relative to DMSO controls), LATS2.

In assay [5] the target is T5, panel of 374 wild-type kinases (Homo sapiens, UniProt P04629).
T5 construct: purchased Reaction Biology Corporation
As to conditions: read-out: % Enzyme Activity (relative to DMSO controls), kinase TRKA.

Assay [6] has as its target T6, panel of 374 wild-type kinases (Homo sapiens, UniProt P27448).
T6 construct: purchased Reaction Biology Corporation
As to conditions: read-out: % Enzyme Activity (relative to DMSO controls), MARK3.

Assay [7] deals with T7, panel of 374 wild-type kinases (Homo sapiens, UniProt Q14164).
T7 construct: purchased Reaction Biology Corporation
T7 sequence (Q14164 1-716): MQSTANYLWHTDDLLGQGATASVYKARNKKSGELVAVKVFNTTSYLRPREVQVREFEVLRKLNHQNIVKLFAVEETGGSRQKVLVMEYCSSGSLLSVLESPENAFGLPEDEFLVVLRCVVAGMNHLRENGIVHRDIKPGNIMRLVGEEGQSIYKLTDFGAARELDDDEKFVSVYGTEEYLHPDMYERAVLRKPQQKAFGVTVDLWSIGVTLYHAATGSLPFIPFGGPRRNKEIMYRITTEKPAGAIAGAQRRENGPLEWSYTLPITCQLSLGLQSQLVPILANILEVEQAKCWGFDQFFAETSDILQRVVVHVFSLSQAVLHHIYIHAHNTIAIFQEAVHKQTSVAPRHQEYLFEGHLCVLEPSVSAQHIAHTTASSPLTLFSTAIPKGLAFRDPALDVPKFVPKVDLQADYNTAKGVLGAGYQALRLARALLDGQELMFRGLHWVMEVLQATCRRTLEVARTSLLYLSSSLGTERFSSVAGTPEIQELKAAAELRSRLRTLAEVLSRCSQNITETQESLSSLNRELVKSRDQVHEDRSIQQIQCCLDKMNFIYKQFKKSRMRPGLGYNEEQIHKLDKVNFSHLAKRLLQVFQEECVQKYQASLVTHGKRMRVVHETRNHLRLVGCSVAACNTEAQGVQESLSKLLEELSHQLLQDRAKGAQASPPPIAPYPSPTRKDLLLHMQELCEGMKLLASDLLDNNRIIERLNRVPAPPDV
As to conditions: read-out: % Enzyme Activity (relative to DMSO controls), IKKe/IKBKE.

Setting [8] is: read-out: % Enzyme Activity (relative to DMSO controls), CDK5/P25.
Setting [9] is: read-out: % Enzyme Activity (relative to DMSO controls), CDK5/p35.

Read-outs that look alike come from different tables or passages of the source.

T2 sequence (Q00535 whole entry): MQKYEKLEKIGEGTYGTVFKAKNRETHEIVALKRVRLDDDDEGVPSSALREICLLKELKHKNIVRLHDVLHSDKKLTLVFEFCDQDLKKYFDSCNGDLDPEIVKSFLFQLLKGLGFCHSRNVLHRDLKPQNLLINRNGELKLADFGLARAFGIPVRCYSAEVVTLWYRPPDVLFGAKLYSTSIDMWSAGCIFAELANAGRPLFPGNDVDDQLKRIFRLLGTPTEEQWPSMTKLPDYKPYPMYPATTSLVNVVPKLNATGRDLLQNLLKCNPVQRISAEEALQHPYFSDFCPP
T5 sequence (P04629 33-796): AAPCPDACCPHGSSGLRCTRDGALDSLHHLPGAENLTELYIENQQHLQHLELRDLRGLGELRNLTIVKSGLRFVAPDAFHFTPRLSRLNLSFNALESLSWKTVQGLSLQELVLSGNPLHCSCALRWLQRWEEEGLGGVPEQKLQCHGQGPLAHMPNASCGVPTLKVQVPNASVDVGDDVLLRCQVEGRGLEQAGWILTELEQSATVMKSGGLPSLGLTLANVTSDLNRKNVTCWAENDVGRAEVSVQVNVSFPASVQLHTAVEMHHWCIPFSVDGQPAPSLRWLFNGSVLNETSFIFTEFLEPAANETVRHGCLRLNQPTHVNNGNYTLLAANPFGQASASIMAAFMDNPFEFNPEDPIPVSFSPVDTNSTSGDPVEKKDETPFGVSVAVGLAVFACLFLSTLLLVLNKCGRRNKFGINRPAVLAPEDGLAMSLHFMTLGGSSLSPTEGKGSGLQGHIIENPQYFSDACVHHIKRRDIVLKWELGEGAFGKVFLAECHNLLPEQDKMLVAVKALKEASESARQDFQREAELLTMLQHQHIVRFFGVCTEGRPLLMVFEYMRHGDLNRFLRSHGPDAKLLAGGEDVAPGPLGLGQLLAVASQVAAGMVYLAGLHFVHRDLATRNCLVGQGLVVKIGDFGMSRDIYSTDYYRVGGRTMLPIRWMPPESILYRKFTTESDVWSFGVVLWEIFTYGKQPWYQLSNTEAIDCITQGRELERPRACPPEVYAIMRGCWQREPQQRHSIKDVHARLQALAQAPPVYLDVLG
T6 sequence (P27448 whole entry): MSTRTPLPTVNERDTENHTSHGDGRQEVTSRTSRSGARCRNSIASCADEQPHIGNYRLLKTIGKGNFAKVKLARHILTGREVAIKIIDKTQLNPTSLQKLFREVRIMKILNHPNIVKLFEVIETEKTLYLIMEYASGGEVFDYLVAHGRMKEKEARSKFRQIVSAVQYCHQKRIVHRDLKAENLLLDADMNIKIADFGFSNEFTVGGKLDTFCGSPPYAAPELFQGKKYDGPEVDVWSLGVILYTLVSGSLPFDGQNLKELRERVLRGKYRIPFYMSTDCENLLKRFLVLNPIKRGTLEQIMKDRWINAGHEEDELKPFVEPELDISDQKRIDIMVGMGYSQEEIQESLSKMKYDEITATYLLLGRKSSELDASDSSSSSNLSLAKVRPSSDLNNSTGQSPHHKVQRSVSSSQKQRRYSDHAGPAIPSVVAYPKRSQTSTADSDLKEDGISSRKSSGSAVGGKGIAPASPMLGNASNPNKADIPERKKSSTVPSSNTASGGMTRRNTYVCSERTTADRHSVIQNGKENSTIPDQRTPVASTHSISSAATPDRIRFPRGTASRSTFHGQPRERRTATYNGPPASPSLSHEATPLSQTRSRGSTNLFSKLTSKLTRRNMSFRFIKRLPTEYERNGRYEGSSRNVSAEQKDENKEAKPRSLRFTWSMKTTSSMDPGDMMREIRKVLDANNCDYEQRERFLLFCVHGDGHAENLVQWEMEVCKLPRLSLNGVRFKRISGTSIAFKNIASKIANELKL
T3 sequence (P06213 28-1382): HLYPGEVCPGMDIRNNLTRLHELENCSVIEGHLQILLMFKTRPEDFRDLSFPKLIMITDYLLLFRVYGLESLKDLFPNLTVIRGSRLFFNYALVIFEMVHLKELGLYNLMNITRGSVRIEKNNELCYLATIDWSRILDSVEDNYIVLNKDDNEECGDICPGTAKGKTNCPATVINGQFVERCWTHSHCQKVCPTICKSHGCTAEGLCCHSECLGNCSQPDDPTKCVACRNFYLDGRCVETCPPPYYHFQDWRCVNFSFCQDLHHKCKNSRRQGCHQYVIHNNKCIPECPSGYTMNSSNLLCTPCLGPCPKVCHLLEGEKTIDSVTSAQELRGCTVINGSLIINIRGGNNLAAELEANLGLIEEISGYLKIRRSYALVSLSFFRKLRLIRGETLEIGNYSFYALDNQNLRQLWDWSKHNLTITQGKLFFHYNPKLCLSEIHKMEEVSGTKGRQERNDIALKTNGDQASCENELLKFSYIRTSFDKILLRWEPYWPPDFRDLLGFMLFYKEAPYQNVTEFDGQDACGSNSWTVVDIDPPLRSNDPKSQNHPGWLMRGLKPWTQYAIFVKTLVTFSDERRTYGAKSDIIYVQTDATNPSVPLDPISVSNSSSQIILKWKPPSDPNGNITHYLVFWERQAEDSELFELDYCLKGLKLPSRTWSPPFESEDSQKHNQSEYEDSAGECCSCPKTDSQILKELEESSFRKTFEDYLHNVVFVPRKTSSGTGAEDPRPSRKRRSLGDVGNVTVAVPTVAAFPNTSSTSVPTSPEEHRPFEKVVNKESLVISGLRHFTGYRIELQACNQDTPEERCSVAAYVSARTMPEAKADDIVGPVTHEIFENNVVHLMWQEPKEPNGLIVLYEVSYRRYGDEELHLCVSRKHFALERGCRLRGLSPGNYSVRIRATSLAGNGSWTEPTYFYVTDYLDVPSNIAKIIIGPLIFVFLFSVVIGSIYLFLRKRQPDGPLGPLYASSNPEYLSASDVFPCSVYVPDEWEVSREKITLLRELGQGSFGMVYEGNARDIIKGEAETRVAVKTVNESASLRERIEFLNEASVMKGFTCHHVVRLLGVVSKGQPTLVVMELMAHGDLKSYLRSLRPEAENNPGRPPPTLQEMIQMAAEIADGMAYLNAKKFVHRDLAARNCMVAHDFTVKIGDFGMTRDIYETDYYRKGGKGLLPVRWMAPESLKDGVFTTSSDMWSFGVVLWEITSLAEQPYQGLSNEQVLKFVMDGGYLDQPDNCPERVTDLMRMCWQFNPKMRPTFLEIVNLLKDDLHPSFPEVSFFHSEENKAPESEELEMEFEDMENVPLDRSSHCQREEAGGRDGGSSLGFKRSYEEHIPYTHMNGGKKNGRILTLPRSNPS

For the compound `O=C(Nc1cnn(-c2csc(C(=O)NC3COC3)c2)c1)Nc1ccccc1Cl` [Compound 17, 4-(4-(3-(2-chlorophenyl)ureido)-1H-pyrazol-1-yl)-N-(oxetan-3-yl)thiophene-2-carboxamide], the remaining activity at 5 µM in assay [1] turned out to be 91.5%; in assay [2] (setting [8]), 101%; in assay [2] (setting [9]) it was 95.4%; in assay [3], 98.4%; in assay [4] it was 96%; in assay [5] it was 100%. Besides, the remaining activity at 5 µM came to 98.2% in assay [6] and 110% in assay [7].
In the case of `O=C(Nc1cnn(-c2csc(C(=O)NC3COC3)c2)c1)Nc1c(F)cccc1Cl` [Compound 25, 4-(4-(3-(2-chloro-6-fluorophenyl)ureido)-1H-pyrazol-1-yl)-N-(oxetan-3-yl)thiophene-2-carboxamide], the remaining activity at 5 µM in assay [1] turned out to be 95.1%; in assay [2] (setting [8]), 88.2%; in assay [2] (setting [9]), 94.3%; in assay [3] it was 102%; in assay [4] it was 104%; in assay [5] it was 87.8%. Besides, the remaining activity at 5 µM in assay [6] was determined as 99.3%; in assay [7], 96.8%.
As for `Cc1sc(C(=O)NC2COC2)cc1-n1cc(NC(=O)Nc2c(F)cccc2Cl)cn1` [Compound 27, 4-(4-(3-(2-chloro-6-fluorophenyl)ureido)-1H-pyrazol-1-yl)-5-methyl-N-(oxetan-3-yl)thiophene-2-carboxamide], the remaining activity at 10 µM in assay [1] (10 uM) came out at 84.7%; in assay [2] (setting [8]) it was 97.6%; in assay [2] (setting [9]), 103%; in assay [3] (10 uM), 85.5%; in assay [4] (10 uM), 94.7%; in assay [5] (10 uM), 81%. Moreover, the remaining activity at 10 µM was determined as 102% in assay [6] (10 uM) and 116% in assay [7] (10 uM).
